We go through 8 compounds from US9820990B2, “Methods of treating disorders associated with protein aggregation” (University of Pittsburgh—Of the Commonwealth System of …, priority 2009, dated 2017).

“Also recorded” adds a separate entry of the source. Structures can show the parent of a compound that is named as a salt. Where two headings read alike, the source gives them in different places.

What all share (type): in vivo, C. elegans
For assay [1], the system named is sGFP::ATZ. Description: LOPAC library high-content primary screen for sGFP::ATZ accumulation in transgenic animals. As to conditions: for Rank-score: 24 h.
Assay [2] deals with sGFP::ATZ. The assay can be described thus: Hit compound characterization: dose-response in the sGFP::ATZ HCS assay. As to conditions: for degradation of aggregated ATZ protein: Caenorhabditis elegans model system; for dose-dependent response: retest at 0-100 μM, 24 or 48 hours; for concentration at which an anti-protein aggregate effect was achieved: C. elegans assay; for effect on sGFP::ATZ accumulation: dose-response, 0-100 μM. Also on record: key to dose-dependent response: c: Compound demonstrated a dose-dependent response.; Compound failed to demonstrate a dose-dependent response. As for the experimental part: Imaging of animals using the ArrayScan VTI: Prior to imaging, worms were anesthetized by adding 30 μl of 0.02 M NaN3 in PBS to each well. Plates were resealed, inverted twice, and incubated for 5 minutes at room temperature. Images were acquired with the ArrayScan VTI HCS Reader fitted with a 2.5× objective and a 0.63× coupler using a 2-channel (TRITC and GFP) assay. Real-time analysis was performed using the SpotDetector BioApplication optimized to quantify fluorescent protein expression in C. elegans. Image acquisition and analysis of a 384-well plate was completed in <45 minutes. The total number of animals in the well was determined by counting the number of red heads (Pmyo-2mRFP) in the TRITC channel. Total spot area or total spot intensity was determined by quantifying the GFP-positive spots in the GFP channel. Total spot area or total spot intensity per animal was determined by dividing the values from the GFP channel by that from the TRITC channel.
Hit compound characterization: Compounds that were identified as potential hits were purchased (if available) and retested for verification. […] Compounds that produced a response in a dose-dependent manner were further tested for a time-dependent response. Compound dose-response curves were performed by dispensing 15 μl of a 4× stock solution into 384-well plates containing 15 μl of assay medium (see above). Thirty-five animals were sorted into each well bringing the volume to ˜60 μl. The final compound concentrations in each well varied from 0-100 μM. Assay plates were incubated in a 22° C. incubator for 24 or 48 hours. Each compound was tested in quadruplicate in at least 2 independent experiments.
Statistical evaluation: Statistical evaluation of data was performed using Prism® (Graphpad Software). The significance of actual and predicted data in FIGS. 12, 14 and 15 was determined using a linear regression analysis and comparing the slope and goodness-of-fit (r2) values. Statistical significance of the spot count, spot area and spot intensity values between N2 (wild-type) and various transgenic lines in FIG. 13 and dose-response in FIG. 17 was determined using an unpaired, one-tailed, Student's t-test.
Compound screen: To test the HCS protocol, a pilot drug screen was performed using the library of pharmacologically active compounds (LOPAC1280™ 1280 compounds). Tight gating parameters for total fluorescence were used to sort 35 young adult Pnhx2sGFP::ATZ animals into wells of 384-well plates containing […] of a LOPAC compound and 0.5% DMSO. Pnhx2sGFP::ATZ animals incubated with 0.5% DMSO served as untreated controls and were placed in the first-two and last-two columns of each plate. In a representative experiment, plate 1 of the LOPAC library was set-up for screening on day 1, and 3 other plates were set-up on the next day. After 24 incubation at 25° C., animals were immobilized by the addition of NaAz and placed in the ArrayScan VTI for automated imaging. To examine for systematic errors, the raw data (total spot area/animal) were depicted as a plate-well scatter plot (FIG. 17A). […] This difference reflects a wider sort-window used to collect animals on day 1 in comparison to that used on day 2. As the average values of the negative controls and that of the sample wells were similar, we combined the control and samples wells for normalization and to identify potential hits using the z-score (FIG. 17B). The ArrayScan VTI reads microtiter plates by rows, alternating from left-to-right, and then right-to-left. For some assays, we noted that the control fluorescence values would drift upwards slightly in rows towards the bottom of the plate. This drift appeared to correlate with an increase in chamber temperature during the scanning period and was minimized by cooling the chamber with a fan or shortening the read times by using 2.5× objective with a 0.6 coupler. Nonetheless, intra-plate variation was controlled for by presenting the data as a B-score (FIG. 17C). […]

Another assay deals with mCherry::LGG-1. The assay can be described thus: Induction of autophagy in transgenic animals expressing Pnhx-2mCherry::lgg-1. The following applies: compared with well-fed animals treated with DMSO (diffuse). The source says:
FIG. 18A-E. Induction of autophagy by hit compounds. Images of transgenic animals expressing Pnhx-2mCherry:lgg-1 treated with various compounds are shown. Images were acquired using a Nikon instruments TiEclipse widefield light microscope fitted with a 20× Plan Apochromat objective. Images were then deconvolved using Volocity (Perkin Elmer, v 5.3.2). Deconvolved z planes were then merged to a single plane. Well-fed animals treated with DMSO (A) show a diffuse mCherry expression throughout the intestine. […] Starved (E) animals are included as a positive control for autophagy. Scale bar, 50 μm.
Macroautophagy is a cellular process in which a double membrane envelops cytosolic components or organelles (autophagosome) and delivers this material to a lysosome (autophagolysosome) for degradation and recycling (reviewed in 79). LGG-1/LC3/Atg8 is a diffuse cytosolic protein that participates in autophagosome formation and becomes inserted into the autophagosome membrane (80). Upon autophagosome formation, LGG-1 fused to mCherry changes its cytoplasmic distribution pattern from diffuse (lower fluorescence intensity) to punctate (higher fluorescence intensity) (80). To determine whether the imaging system could follow this process, a strain expressing a Pnhx-2mCherry::lgg-1 transgene was examined after starvation, a potent inducer of intestinal autophagosome formation (81). In well-fed animals, the diffuse cytoplasmic fluorescence in the intestinal cells was well above that of the N2 background (FIGS. 13K-13L, 13O-13Q). To detect mCherry::LGG-1 puncta, the diffuse fluorescence intensity of the well-fed animals was used to calibrate a threshold from which the SpotDetector BioApplication could detect any high-intensity spots. Although basal autophagy in the well-fed animals yielded a few spots (FIG. 13O), the large number of distinct puncta in the starved animals (FIGS. 13M, 13N, 13O-Q) indicated a marked increase in autophagy that was detected best by a statistically significant increase in spot count or total spot intensity per animal (FIGS. 13O and 13Q, respectively). […]

The mark [3] stands for this setting: among compounds that decreased ATZ accumulation, based on relative rank-scores.
Setting [4] is: average of compound rankings by ascending B-score from two independent screens, 50 μM, <110 decreased, >1225 increased sGFP::ATZ inclusions.

`CC(=O)O[C@H]1C(=O)[C@@]2(C)[C@H]([C@H](OC(=O)c3ccccc3)[C@]3(O)C[C@H](OC(=O)[C@H](O)[C@@H](NC(=O)c4ccccc4)c4ccccc4)C(C)=C1C3(C)C)[C@]1(OC(C)=O)CO[C@@H]1C[C@@H]2O` [taxol, 5β,20-Epoxy-1,2α,4,7β, 10β,13α-hexahydroxytax-11-en-9-one 4,10-diacetate 2-benzoate 13-ester with (2R,3S)—N-benzoyl-3-phenylisoserine] registered an Overall rank-order with sGFP::ATZ [1] of 19. For the same compound, the Rank-score in the assay with sGFP::ATZ [1] (50 µM) is 73.5. In addition, in the assay on sGFP::ATZ [2], the “degradation of aggregated ATZ protein” value is on record as “able to promote degradation of aggregated ATZ protein” and the dose-dependent response entry was “taxol^c”.
On to “5′-3′2,3-dicarboxy-2,3-dimethyl-1,4-epoxycyclohexane [cantharidic acid]”, for which, in the assay with sGFP::ATZ [1] (setting [3]), the Overall rank-order came to 22. In the assay on sGFP::ATZ [1] (setting [4]), this compound displayed a Rank-score of 79.0. Besides, in the assay with sGFP::ATZ [2], the “concentration at which an anti-protein aggregate effect was achieved” value is 100 µM, the “degradation of aggregated ATZ protein” value is “able to promote degradation of aggregated ATZ protein” and the dose-dependent response result is “cantharidic acid^c”.
On to `CCN1CCc2nc(N)oc2CC1.Cl.Cl` [B-HT 933 dihydrochloride], for which the Overall rank-order in the assay on sGFP::ATZ [1] (setting [3]) is 32. Moreover, in the assay with sGFP::ATZ [1] (setting [4]), the Rank-score came to 105.5. In addition, the dose-dependent response result in the assay on sGFP::ATZ [2] is recorded as “B-HT 933 dihydrochloride^d”.
In turn, `CC12C(=O)OC(=O)C1(C)C1CCC2O1` (stereo not shown) [cantharidin, 2,6-Dimethyl-4,10-dioxatricyclo-[5.2.1.02,6]decane-3,5-dione] yielded an Overall rank-order in the assay with sGFP::ATZ [1] (setting [3]) of 2. The Rank-score in the assay with sGFP::ATZ [1] (setting [4]) came out at 2.5. Moreover, in the assay with sGFP::ATZ [2], the “concentration at which an anti-protein aggregate effect was achieved” value was determined as 100 µM, the “degradation of aggregated ATZ protein” value is “able to promote degradation of aggregated ATZ protein”, the “effect on sGFP::ATZ accumulation” value is “dose-dependant decrease in sGFP::ATZ accumulation; also recorded: decreased” and the dose-dependent response result was “cantharidin^c”. Besides, the “effect on sGFP::ATZ accumulation” value in the assay on sGFP::ATZ [2] (listed as Cantharidin) is “dose-dependent decrease in sGFP::ATZ accumulation”. In addition, in the assay with mCherry::LGG-1, the “mCherry::LGG-1 distribution pattern (autophagic activity)” value is recorded as “markedly punctate distribution pattern indicative of increased autophagic activity”.
L(−)-norepinephrine bitartrate gave an Overall rank-order with sGFP::ATZ [1] (setting [3]) of 7. In the assay on sGFP::ATZ [1] (setting [4]), this compound gave a Rank-score of 36.5. Besides, the dose-dependent response entry with sGFP::ATZ [2] is “L(−)-norepinephrine bitartrate^d”.
For `CO[C@@]1(NC(=O)CSCC#N)C(=O)N2C(C(=O)O)=C(CSc3nnnn3C)CS[C@@H]21` [cefmetazole sodium] the same measures were 9, 51.0 and “cefmetazole sodium^d”.
On to `CC/C(=C(\c1ccccc1)c1ccc(OCCN(C)C)cc1)c1ccccc1` [tamoxifen citrate, (Z)-2-[4-(1,2-diphenylbut-1-enyl)phenoxy]-N,N-dimethylethylamine], for which the Overall rank-order in the assay on sGFP::ATZ [1] (setting [3]) was 24. Also, the Rank-score in the assay on sGFP::ATZ [1] (setting [4]) came out at 83.5. Also, in the assay on sGFP::ATZ [2], the “degradation of aggregated ATZ protein” value is listed as “able to promote degradation of aggregated ATZ protein”, the “effect on sGFP::ATZ accumulation” value is on record as “dose-dependant decrease in sGFP::ATZ accumulation” and the dose-dependent response result is “tamoxifen citrate^c”.
As to `C/C=C(/C)C(=O)O[C@H]1C(C)=C2[C@H]([C@@H]1OC(=O)CCCCCCC)[C@@](C)(OC(C)=O)C[C@H](OC(=O)CCC)[C@@]1(O)[C@H]2OC(=O)[C@@]1(C)O` [thapsigargin], in the assay with sGFP::ATZ [1] (among compounds that increased ATZ accumulation, based on relative rank-scores), the Overall rank-order came out at 2. Besides, in the assay with sGFP::ATZ [1] (setting [4]), the Rank-score worked out at 1256.0. In addition, the dose-dependent response entry in the assay with sGFP::ATZ [2] was “thapsigargin^c”.
